Experimental data taken from paper PMC5106528, “High-Throughput Toxicity and Phenotypic Screening of 3D Human Neural Progenitor Cell Cultures on a Microarray Chip Platform” (Stem Cell Reports, 2016).
Where two headings read alike, the source gives them in different places. Marks after values point to notes of the source that are not given here.

Assays:
[1] = system: undifferentiated ReNcell VM NPCs; assay: On-chip proliferation assay (EdU incorporation), undifferentiated NPCs; format: cell-based, human; settings: for IC50 / Proliferation Effects Undifferentiating log(IC50 ± SEM): undifferentiated, 72 hr exposure, EdU for the final 24 hr, sigmoidal fit; for Effect on proliferation of NPC cultures (in words): state not specified
From the text: (§1) Differential toxic effects could be explained, in part, as a consequence of the different proliferative states between the undifferentiated and differentiating NPCs. To this end, the thymidine analog, 5-ethynyl-2′-deoxyuridine (EdU), was used to detect actively proliferating cells on-chip following exposure to compounds or vehicle control to determine dose-response effects on proliferation (Figures 5B and S5), and sigmoidal curves were fit, when appropriate, to obtain IC50 values (Table 1). We found ∼60% of undifferentiated NPCs incorporated EdU over a 24-hr period as opposed to ∼3% of differentiating cultures.
(§2) Undifferentiated and differentiating cultures were screened for toxicity as described previously, except that after the first 48 hr of exposure 10 μM EdU (Click-iT EdU, Invitrogen) was added to the compound-containing medium for the final 24 hr. After 72 hr, on-chip cultures were fixed and processed as described previously for on-chip immunofluorescence; however, instead of antibody staining the cultures were incubated with solution containing Alexa Fluor 488-azide for 30 min as specified in the product manual. Cultures were then rinsed with DPBS for 30 min, incubated in DPBS with Hoechst 33342 (5 μg/mL) for 30 min, and washed in DPBS for 30 min before proceeding with a trehalose wash and drying as described previously. Nuclei were selected using Cellomics software from blue channel images to create a mask, which was used for identification of fluorescently labeled EdU in the green channel for quantification of actively proliferating cells over the 24-hr EdU exposure.

[2] = system: differentiating ReNcell VM NPCs; assay: cells; format: cell-based, human; settings: for IC50 / Proliferation Effects Differentiating log(IC50 ± SEM): differentiating, 72 hr exposure, EdU for the final 24 hr, sigmoidal fit
From the text: as §1, §2

[3] = system: differentiating ReNcell VM NPCs; assay: cells
Description: (§3) On-chip cultures of undifferentiated and 10-day differentiated NPCs were stamped with WellChips filled with compound-containing solutions and incubated for 72 hr prior to viability assessment. Vehicle-control normalized viabilities were plotted against compound concentration to generate dose-response plots (Figures 5A and S4). […] The sigmoidal fits for undifferentiated and differentiating NPCs were compared to assess whether differential sensitivities (i.e., different IC50 values) existed for the screened compounds.
(§4) Cell viability was determined in 3D on-chip cultures using a mammalian cell viability assay (LIVE/DEAD, Invitrogen). Prior to the assay, dead cell controls were prepared with 30 min incubation in a WellChip containing either […] 0.5% (w/v) saponin-DMEM/F12 medium in its microwells. […] After staining, PillarChips were rinsed twice with warm DPBS and incubated in DPBS containing 50 mM trehalose (Sigma) for 10 min before rapid drying with nitrogen and storage in the dark. Dried PillarChips were imaged with a Thermo Scientific Cellomics ArrayScan VTI high-content system.
(§5) Undifferentiated and differentiated microchip cultures were prepared as described above. Chemicals were purchased from Sigma or the NIH Small Molecule Repository (Table S2). Concentrated stocks were prepared and diluted into ReNcell Maintenance Medium to prepare the highest screened concentration solution for each compound. Four-fold serial dilutions were made in ReNcell Maintenance Medium, with all solutions having a final concentration of 0.5% or 1% DMSO (v/v) and 20 μg/mL Matrigel. For undifferentiated cultures, the solutions also contained 20 ng/mL of EGF and FGF2. These solutions were printed into WellChips, covered with a gas-permeable membrane, and warmed at 37°C for at least 5 min before stamping with cells. Each WellChip contained six compounds each at six concentrations (n = 10 biological replicates for each concentration) and the appropriate medium containing 0.5% or 1% DMSO for vehicle and dead controls (n = 32 biological replicates per control). PillarChip cultures were incubated with compounds for 72 hr with daily medium exchange to freshly prepared WellChips containing compounds at the appropriate concentrations. […] On-chip toxicity screens were repeated three times for undifferentiated and differentiated cultures. […]

[4] = system: undifferentiated ReNcell VM NPCs; assay: cells
Description: as §3, §4, §5

[5] = Homo sapiens, ReNcell VM, read-out: Proliferation Effects Undifferentiating IC50
[6] = Homo sapiens, ReNcell VM, read-out: Proliferation Effects Undifferentiating log(IC50 ± SEM) (converted)
[7] = Homo sapiens, ReNcell VM, read-out: Proliferation Effects Differentiating IC50
[8] = Homo sapiens, ReNcell VM, read-out: Proliferation Effects Differentiating log(IC50 ± SEM) (converted)
[9] = Homo sapiens, ReNcell VM, read-out: Viability Effects Differentiating IC50
[10] = Homo sapiens, ReNcell VM, read-out: Viability Effects Differentiating log(IC50 ± SEM) (converted)
[11] = Homo sapiens, ReNcell VM, 72 h, read-out: Viability Effects Undifferentiated IC50
[12] = Homo sapiens, ReNcell VM, 72 h, read-out: Viability Effects Undifferentiated log(IC50 ± SEM) (converted)
[13] = 10-day differentiated (−EGF/FGF2), 72 hr exposure, 1% Matrigel on-chip, sigmoidal fit
[14] = read-out: Viability Effects Differentiating IC50, 10-day differentiated (−EGF/FGF2), 72 hr exposure, 1% Matrigel on-chip, sigmoidal fit
[15] = read-out: Viability Effects Undifferentiated IC50, undifferentiated (+EGF/FGF2), 72 hr exposure, 1% Matrigel on-chip, sigmoidal fit
[16] = undifferentiated (+EGF/FGF2), 72 hr exposure, 1% Matrigel on-chip, sigmoidal fit
[17] = differentiating cultures, 72 hr
[18] = undifferentiated cultures, 72 hr

O=c1[nH]cc(F)c(=O)[nH]1 [5-Fluorouracil]
IC50 [1, 5]: 1.35 µM
IC50 [1, 6]: 1.38 µM
Effect on proliferation of NPC cultures (in words) [1]: inhibit the proliferation
Effect on EdU incorporation (in words) ([1]; undifferentiated cultures): sharp decrease to no EdU incorporation
IC50 [2, 7]: 1.82 µM
IC50 [2, 8]: 1.82 µM
Effect on EdU incorporation (in words) ([2]; differentiating cultures): sharp decrease to no EdU incorporation
Effect on cell viability (in words) [3]: minimally impacting
IC50 [3, 9]: 2.3 µM
IC50 [3, 10]: 2.24 µM
Normalized viability at Cmax, Differentiating, Mean ± SEM ([3]; human, 72 h): 0.81 ± 0.17
Effect on cell viability (in words) [4]: nearly complete killing
IC50 [4, 11]: 2.3 µM
IC50 [4, 12]: 2.29 µM
Normalized viability at Cmax, Undifferentiated, Mean ± SEM ([4]; human, 72 h): 0.15 ± 0.10

CC(=O)Nc1ccc(O)cc1 [Acetaminophen]
IC50 [1, 5]: 1000 µM
IC50 [1, 6]: 1040 µM
IC50 [2, 7]: 18200 µM
IC50 [2, 8]: 18200 µM
IC50 [3, 9]: 18000 µM
IC50 [3, 10]: 20000 µM
Normalized viability at Cmax, Differentiating, Mean ± SEM ([3]; human, 72 h): -0.1 ± 0.03
Cytotoxicity (in words) [4]: no cytotoxicity at functionally relevant concentrations
IC50 [4, 11]: 1400 µM
IC50 [4, 12]: 1260 µM
Normalized viability at Cmax, Undifferentiated, Mean ± SEM ([4]; human, 72 h): -0.16 ± 0.07

CC(COc1ccccc1Cc1ccccc1)N1CCCCC1 (stereo not shown) [Benproperone, Benproperine]
Normalized viability at Cmax, Differentiating, Mean ± SEM [3]: 0.71 ± 0.30
Normalized viability at Cmax, Undifferentiated, Mean ± SEM [4]: 0.06 ± 0.52

[Cl][Cd][Cl] [Cadmium Chloride]
Proliferation Effects Undifferentiating log(IC50 ± SEM) [1]: 0.93 log(μM)
IC50 ([1]; read-out: Proliferation Effects Undifferentiating IC50): 8.6 µM
Proliferation Effects Differentiating log(IC50 ± SEM) [2]: 1.18 log(μM)
IC50 ([2]; read-out: Proliferation Effects Differentiating IC50): 15 µM
Viability Effects Differentiating log(IC50 ± SEM) [3, 13]: 0.88 ± 0.27 log(μM)
IC50 [3, 14]: 7.6 µM
IC50 [4, 15]: 3.7 µM
Viability Effects Undifferentiated log(IC50 ± SEM) [4, 16]: 0.57 ± 0.3 log(μM)

CC1(C)C[C@@H]1C(=O)N/C(=C\CCCCSC[C@H](N)C(=O)O)C(=O)O [Cilastatin]
Effect on proliferation of NPC cultures (in words) [1]: did not
Effect on cell viability (in words) [3, 17]: had no effect
Effect on cell viability (in words) [4, 18]: had no effect

Nc1ccn([C@@H]2O[C@H](CO)[C@@H](O)[C@@H]2O)c(=O)n1 [Cytosine Arabinoside]
Proliferation Effects Undifferentiating log(IC50 ± SEM) [1]: < −1 log(μM)
Proliferation Effects Differentiating log(IC50 ± SEM) [2]: < −1 log(μM)
Normalized viability at Cmax, Differentiating, Mean ± SEM [3]: 0.47 ± 0.12
Viability Effects Differentiating log(IC50 ± SEM) [3, 13]: 0.55 ± 0.55 log(μM)
IC50 [3, 14]: 3.5 µM
Normalized viability at Cmax, Undifferentiated, Mean ± SEM [4]: 0.40 ± 0.03
IC50 [4, 15]: 0.33 µM
Viability Effects Undifferentiated log(IC50 ± SEM) [4, 16]: −0.48 ± 0.17 ^b log(μM)

C[C@@H]1C[C@H]2[C@@H]3CCC4=CC(=O)C=C[C@]4(C)[C@@]3(F)[C@@H](O)C[C@]2(C)[C@@]1(O)C(=O)CO [Dexamethasone]
Normalized viability at Cmax, Differentiating, Mean ± SEM ([3]; human, 72 h): 1.08 ± 0.16
Normalized viability at Cmax, Undifferentiated, Mean ± SEM ([4]; human, 72 h): 1.35 ± 0.33

CN(C)CCOC(c1ccccc1)c1ccccc1 [Diphenhydramine]
Cytotoxicity (in words) [4]: no cytotoxicity at functionally relevant concentrations

COc1cccc2c1C(=O)c1c(O)c3c(c(O)c1C2=O)C[C@@](O)(C(=O)CO)C[C@@H]3O[C@H]1C[C@H](N)[C@H](O)[C@H](C)O1 [Doxorubicin]
IC50 [1, 6]: < 0.1 µM
IC50 [2, 8]: < 0.1 µM
IC50 [3, 9]: 2.7 µM
IC50 [3, 10]: 2.75 µM
Normalized viability at Cmax, Differentiating, Mean ± SEM ([3]; human, 72 h): 0.11 ± 0.16
IC50 [4, 11]: 0.8 µM
IC50 [4, 12]: 0.794 µM
Normalized viability at Cmax, Undifferentiated, Mean ± SEM ([4]; human, 72 h): 0.05 ± 0.13

O=C(O)CNCP(=O)(O)O [Glyphosate]
Normalized viability at Cmax, Differentiating, Mean ± SEM [3]: 0.41 ± 0.14
Normalized viability at Cmax, Undifferentiated, Mean ± SEM [4]: 0.01 ± 0.03

CC(=O)[O-].CC(=O)[O-].[Pb+2] [Lead Acetate]
Effect on cell viability (in words) [3, 17]: did not reduce cell viability
Effect on cell viability (in words) [4, 18]: did not reduce cell viability

[Cl][Mn][Cl] [Manganese Chloride]
Effect on cell viability (in words) [3, 17]: did not reduce cell viability
Effect on cell viability (in words) [4, 18]: did not reduce cell viability

CN1CCN2c3ncccc3Cc3ccccc3C2C1 (stereo not shown) [Mitrazepine, Mirtazapine]
Normalized viability at Cmax, Undifferentiated, Mean ± SEM ([4]; human, 72 h): 1.11 ± 0.09

O=C1CN=C(c2ccccc2)c2cc([N+](=O)[O-])ccc2N1 [Nitrazepam]
Normalized viability at Cmax, Differentiating, Mean ± SEM [3]: 1.07 ± 0.07
Normalized viability at Cmax, Undifferentiated, Mean ± SEM [4]: 1.16 ± 0.13

C[n+]1ccc(-c2cc[n+](C)cc2)cc1 [Paraquat]
IC50 [1, 5]: 59 µM
IC50 [1, 6]: 58.9 µM
IC50 [2, 7]: 30 µM
IC50 [2, 8]: 30.2 µM
Normalized viability at Cmax, Differentiating, Mean ± SEM [3]: 0.05 ± 0.02
IC50 [3, 9]: 41 µM
IC50 [3, 10]: 40.7 µM
Normalized viability at Cmax, Undifferentiated, Mean ± SEM [4]: -0.02 ± 0.03
IC50 [4, 11]: 57 µM
IC50 [4, 12]: 63.1 µM

Fc1ccc([C@@H]2CCNC[C@H]2COc2ccc3c(c2)OCO3)cc1 [Paroxetine]
Normalized viability at Cmax, Differentiating, Mean ± SEM ([3]; human, 72 h): 0.30 ± 0.38
Normalized viability at Cmax, Undifferentiated, Mean ± SEM ([4]; human, 72 h): 0.07 ± 0.13

O=C(O)C[C@H](O)C[C@H](O)/C=C/c1c(C2CC2)nc2ccccc2c1-c1ccc(F)cc1 [Pitavistatin]
IC50 [1, 5]: 2 µM
IC50 [1, 6]: 1.95 µM
Effect on proliferation of NPC cultures (in words) [1]: inhibited proliferation
IC50 [2, 7]: 0.98 µM
IC50 [2, 8]: 0.977 µM
Effect on cell viability (in words) [3]: did not decrease the viability
Normalized viability at Cmax, Differentiating, Mean ± SEM [3]: 1.16 ± 0.07
Effect on cell viability (in words) [4]: cytotoxic only to undifferentiated NPCs
Normalized viability at Cmax, Undifferentiated, Mean ± SEM [4]: 0.14 ± 0.11
IC50 [4, 11]: 5.4 µM
IC50 [4, 12]: 5.37 µM

CC1=C(/C=C/C(C)=C/C=C/C(C)=C/C(=O)O)C(C)(C)CCC1 [Retinoic Acid]
IC50 [1, 5]: 15 µM
IC50 [1, 6]: 14.8 µM
IC50 [2, 7]: 22 µM
IC50 [2, 8]: 22.4 µM
Increase of the average number of proliferating cells ([2]; differentiated cultures, at lower concentrations): greater than 3 fold
IC50 [3, 9]: 47 µM
IC50 [3, 10]: 50.1 µM
Normalized viability at Cmax, Differentiating, Mean ± SEM ([3]; human, 72 h): 0.50 ± 0.13
IC50 [4, 11]: 0.74 µM
IC50 [4, 12]: 0.741 µM
Normalized viability at Cmax, Undifferentiated, Mean ± SEM ([4]; human, 72 h): 0.55 ± 0.16

CCCC(CCC)C(=O)O [Valproic Acid]
Normalized viability at Cmax, Differentiating, Mean ± SEM ([3]; human, 72 h): 1.09 ± 0.10
Normalized viability at Cmax, Undifferentiated, Mean ± SEM ([4]; human, 72 h): 0.99 ± 0.08
